{
  "source": "paper PMC10290043",
  "about": "“Pharmacokinetics, safety, and antitumor activity of talazoparib monotherapy in Chinese patients with advanced solid tumors” (Investigational New Drugs, 2023)",
  "key": {"[1]": {"system": "advanced breast cancer and a germline BRCA alteration", "design": "method as in PMID 30110579", "settings": "EMBRACA, cited from earlier work"}, "[2]": {"assay": "Safety: treatment-emergent adverse events, NCT04635631", "assay_type": "in vivo, human", "settings": "for Any AE: safety population N=15, 1 mg QD", "text": "AE reporting included data up to 28 days after last dose of study drug or to start of new anticancer drug therapy Day -1 (whichever came first). For AEs, Medical Dictionary for Regulatory Activities (MedDRA), version 24.0, coding was applied.\nAll patients who had received at least 1 dose of talazoparib were included in the safety and efficacy analysis sets. All treated patients with at least 1 PK concentration in the single-dose and/or multiple-dose PK part were included in the PK concentration analysis set, and all treated patients with at least 1 of the PK parameters of primary interest in the single-dose and/or multiple-dose PK part were included in the PK parameter analysis set. All patients in the PK parameter analysis set who completed both the single-dose PK and multiple-dose PK parts without major protocol deviations were included in the PK evaluable analysis set."}},
  "note": "Entries after “also recorded” stand apart in the source; their conditions may differ.",
  "data": [
    {"smiles": "Cn1ncnc1[C@H]1c2n[nH]c(=O)c3cc(F)cc(c23)N[C@@H]1c1ccc(F)cc1", "note": "[talazoparib]", "values": [
      {"measurement": "Hazard ratio for disease progression or death", "setting": "[1]; versus standard chemotherapy, 95% CI 0.41–0.71, P < 0.001", "value": 0.54},
      {"measurement": "Median progression-free survival", "setting": "[1]; vs 5.6 months standard chemotherapy", "value": 8.6, "unit": "months"},
      {"measurement": "Patients with 1 or more dose reduction due to treatment-related AEs", "setting": "[2]; 3/15 patients", "value": "Twenty percent"},
      {"measurement": "Any-grade treatment-related TEAE: anemia", "setting": "[2]; N=15", "value": 46.7, "unit": "%"},
      {"measurement": "Any-grade treatment-related TEAE: decreased lymphocyte count", "setting": "[2]; N=15", "value": 33.3, "unit": "%"},
      {"measurement": "Any-grade treatment-related TEAE: decreased neutrophil count", "setting": "[2]; N=15", "value": 46.7, "unit": "%"},
      {"measurement": "Any-grade treatment-related TEAE: decreased platelet count", "setting": "[2]; N=15", "value": 33.3, "unit": "%"},
      {"measurement": "Any-grade treatment-related TEAE: decreased white blood cell count", "setting": "[2]; N=15", "value": 46.7, "unit": "%"},
      {"measurement": "Any-grade treatment-related TEAE: elevated alanine aminotransferase", "setting": "[2]; N=15", "value": 33.3, "unit": "%"},
      {"measurement": "Any-grade treatment-related TEAE: elevated aspartate aminotransferase", "setting": "[2]; N=15", "value": 33.3, "unit": "%"},
      {"measurement": "Patients permanently discontinued because of treatment-related decreased neutrophil count", "setting": "[2]; N=15", "value": 6.7, "unit": "%"},
      {"measurement": "Patients with dose interruptions due to all-causality AEs", "setting": "[2]; N=15", "value": 20.0, "unit": "%"},
      {"measurement": "Patients with dose interruptions due to treatment-related AEs", "setting": "[2]; N=15", "value": 13.3, "unit": "%"},
      {"measurement": "Patients with grade 3 treatment-related TEAEs", "setting": "[2]; N=15", "value": 20, "unit": "%"},
      {"measurement": "Patients with grade 4 treatment-related TEAEs", "setting": "[2]; N=15", "value": 13.3, "unit": "%"},
      {"measurement": "Patients with serious all-causality TEAEs", "setting": "[2]; N=15", "value": 13.3, "unit": "%"},
      {"measurement": "Patients with serious treatment-related TEAEs", "setting": "[2]; N=15", "value": 13.3, "unit": "%"},
      {"measurement": "Treatment-related grade 3 or 4 TEAE: decreased neutrophil count", "setting": "[2]; N=15", "value": 20, "unit": "%"},
      {"measurement": "Treatment-related grade 3 or 4 TEAE: decreased platelet count", "setting": "[2]; N=15", "value": 20, "unit": "%"},
      {"measurement": "Patients with grade 3–4 treatment-related AEs", "setting": "[2]; N=15, in words", "value": "One-third"},
      {"measurement": "Treatment-related grade 3 or 4 TEAE: anemia", "setting": "[2]; N=15, no grade 4", "value": 20, "unit": "%"},
      {"measurement": "Treatment-related grade 3 or 4 TEAE: hyponatremia", "setting": "[2]; N=15, no grade 4", "value": 6.7, "unit": "%"},
      {"measurement": "Treatment-related grade 3 or 4 TEAE: neutropenia", "setting": "[2]; N=15, no grade 4", "value": 6.7, "unit": "%"},
      {"measurement": "Grade 5 TEAEs", "setting": "[2]; all-causality or treatment-related, N=15", "value": "No grade 5 all-causality or treatment-related TEAEs; also recorded: no grade 5 TEAEs"},
      {"measurement": "AEs leading to discontinuation", "setting": "[2]; all-causality, N=15", "value": "1 (6.7) n (%)"},
      {"measurement": "AEs leading to dose interruption", "setting": "[2]; all-causality, N=15", "value": "3 (20.0) n (%)"},
      {"measurement": "AEs leading to dose reduction", "setting": "[2]; all-causality, N=15", "value": "3 (20.0) n (%)"},
      {"measurement": "Grade 3 or 4 AE", "setting": "[2]; all-causality, N=15", "value": "9 (60.0) n (%)"},
      {"measurement": "Grade 3 or 4 AE: Anemia", "setting": "[2]; all-causality, N=15", "value": "3 (20.0) n (%)"},
      {"measurement": "Grade 3 or 4 AE: Gamma-glutamyltransferase increased", "setting": "[2]; all-causality, N=15", "value": "4 (26.7%) n (%)"},
      {"measurement": "Grade 3 or 4 AE: Neutrophil count decreased", "setting": "[2]; all-causality, N=15", "value": "3 (20.0) n (%)"},
      {"measurement": "Grade 3 or 4 AE: Platelet count decreased", "setting": "[2]; all-causality, N=15", "value": "3 (20.0) n (%)"},
      {"measurement": "Grade 5 AE (Death due to AE)", "setting": "[2]; all-causality, N=15", "value": "0 n (%)"},
      {"measurement": "Patients with any SAE", "setting": "[2]; all-causality, N=15", "value": "2 (13.3) n (%)"},
      {"measurement": "SAE: Anemia", "setting": "[2]; all-causality, N=15", "value": "1 (6.7) n (%)"},
      {"measurement": "SAE: Hypernatremia", "setting": "[2]; all-causality, N=15", "value": "1 (6.7) n (%)"},
      {"measurement": "SAE: Hyponatremia", "setting": "[2]; all-causality, N=15", "value": "1 (6.7) n (%)"},
      {"measurement": "SAE: Neutrophil count decreased", "setting": "[2]; all-causality, N=15", "value": "1 (6.7) n (%)"},
      {"measurement": "SAE: Platelet count decreased", "setting": "[2]; all-causality, N=15", "value": "1 (6.7) n (%)"},
      {"measurement": "Any AE", "setting": "[2]; all-causality", "value": "14 (93.3) n (%)"},
      {"measurement": "Patients with all-causality TEAEs", "setting": "[2]; safety population N=15", "value": 93.3, "unit": "%"},
      {"measurement": "Patients with treatment-related TEAEs", "setting": "[2]; safety population N=15", "value": 86.7, "unit": "%"},
      {"measurement": "AEs leading to discontinuation", "setting": "[2]; treatment-related, N=15", "value": "1 (6.7) n (%)"},
      {"measurement": "AEs leading to dose interruption", "setting": "[2]; treatment-related, N=15", "value": "2 (13.3) n (%)"},
      {"measurement": "AEs leading to dose reduction", "setting": "[2]; treatment-related, N=15", "value": "3 (20.0) n (%)"},
      {"measurement": "Grade 3 or 4 AE", "setting": "[2]; treatment-related, N=15", "value": "5 (33.3) n (%)"},
      {"measurement": "Grade 3 or 4 AE: Anemia", "setting": "[2]; treatment-related, N=15", "value": "3 (20.0) n (%)"},
      {"measurement": "Grade 3 or 4 AE: Gamma-glutamyltransferase increased", "setting": "[2]; treatment-related, N=15", "value": "0 n (%)"},
      {"measurement": "Grade 3 or 4 AE: Neutrophil count decreased", "setting": "[2]; treatment-related, N=15", "value": "3 (20.0) n (%)"},
      {"measurement": "Grade 3 or 4 AE: Platelet count decreased", "setting": "[2]; treatment-related, N=15", "value": "3 (20.0) n (%)"},
      {"measurement": "Grade 5 AE (Death due to AE)", "setting": "[2]; treatment-related, N=15", "value": "0 n (%)"},
      {"measurement": "Patients with any SAE", "setting": "[2]; treatment-related, N=15", "value": "2 (13.3) n (%)"},
      {"measurement": "SAE: Anemia", "setting": "[2]; treatment-related, N=15", "value": "1 (6.7) n (%)"},
      {"measurement": "SAE: Hypernatremia", "setting": "[2]; treatment-related, N=15", "value": "0 n (%)"},
      {"measurement": "SAE: Hyponatremia", "setting": "[2]; treatment-related, N=15", "value": "1 (6.7) n (%)"},
      {"measurement": "SAE: Neutrophil count decreased", "setting": "[2]; treatment-related, N=15", "value": "1 (6.7) n (%)"},
      {"measurement": "SAE: Platelet count decreased", "setting": "[2]; treatment-related, N=15", "value": "1 (6.7) n (%)"},
      {"measurement": "Any AE", "setting": "[2]; treatment-related", "value": "13 (86.7) n (%)"}
    ]}
  ]
}
